# Test results: patent US9469615B2, “Quinoxalines and AZA-quinoxalines as CRTH2 receptor modulators” (Merck Sharp & Dohme Corp., priority 2010, dated 2016)
# Molecular target: T1, hCRTH2 (Homo sapiens, UniProt Q9Y5Y4)
# T1 construct: expressed in transfected cells; host or cells: HEK (human embryonic kidney) cells expressing hCRTH2; membrane preparation
# T1 sequence (Q9Y5Y4 1-395): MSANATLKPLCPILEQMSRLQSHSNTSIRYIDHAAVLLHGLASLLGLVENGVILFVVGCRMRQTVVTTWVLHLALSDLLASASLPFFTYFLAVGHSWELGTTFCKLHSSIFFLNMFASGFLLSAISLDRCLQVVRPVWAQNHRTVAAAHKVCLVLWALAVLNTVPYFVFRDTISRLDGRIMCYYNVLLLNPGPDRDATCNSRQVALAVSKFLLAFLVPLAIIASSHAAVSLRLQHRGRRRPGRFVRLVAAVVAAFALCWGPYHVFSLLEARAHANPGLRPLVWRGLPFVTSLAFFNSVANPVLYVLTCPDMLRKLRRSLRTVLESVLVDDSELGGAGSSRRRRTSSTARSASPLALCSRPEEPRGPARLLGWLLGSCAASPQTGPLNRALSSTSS
# Experiment: Radioligand binding assay ([3H]PGD2 competition, HEK-hCRTH2 membranes)
# Details: [3H]PGD2 competition, Table B
# Procedure, shortened: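 HEK-hCRTH2 membranes, 8-20 μg; [3H]PGD2 3.0 nM; 50 mM Tris-HCl pH 7.4/1 mM EDTA/2 mM MnCl2; DMSO 1%; 60 min RT; NSB 10 μM PGD2; filtration, scintillation counting.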
row,Structure (SMILES),Ki
1,"O=C(O)CCCc1nc2cc(C(=O)N[C@@H]3CCCc4cc(F)ccc43)ccc2nc1-c1ccccc1 [compound 723, (R)-4-(7-((6-fluoro-1,2,3,4-tetrahydronaphthalen-1-yl)carbamoyl)-3-phenylquinoxalin-2-yl)butanoic acid]",20.1 to 200 nM
2,"O=C(O)CCCc1nc2cc(C(=O)N[C@@H]3CCCc4ccccc43)ccc2nc1-c1ccccc1 [compound 724, (R)-4-(3-phenyl-7-((1,2,3,4-tetrahydronaphthalen-l-yl)carbamoyl)quinoxalin-2-yl)butanoic acid]",201 to 700 nM
3,"O=C(O)CCCc1nc2cc(C(=O)N[C@@H]3CCOc4cc(F)ccc43)ccc2nc1-c1ccccc1 [compound 725, (R)-4-(7-((7-fluorochroman-4-yl)carbamoyl)-3-phenylquinoxalin-2-yl)butanoic acid]",201 to 700 nM

# Other lines, results leading:
row,Ki,Structure (SMILES)
1,2.1 to 20 nM,"CC1(C)CC[C@@H](NC(=O)c2ccc3nc(-c4ccccc4)c(CCCCC(=O)O)nc3c2)c2ccccc21 [compound 722, (R)-5-(7-((4,4-dimethyl-1,2,3,4-tetrahydronaphthalen-1-yl)carbamoyl)-3-phenylquinoxalin-2-yl)pentanoic acid]"
2,2.1 to 20 nM,"C[C@@H](NC(=O)c1cc2nc(CCCCC(=O)O)c(-c3ccccc3)nc2cc1F)c1ccc(F)cc1 [compound 727, (R)-5-(6-fluoro-7-((1-(4-fluorophenyl)ethyl)carbamoyl)-3-phenylquinoxalin-2-yl)pentanoic acid]"
3,2.1 to 20 nM,"O=C(O)CCCCc1nc2cc(C(=O)N[C@@H]3CCOc4ccccc43)c(F)cc2nc1-c1ccccc1 [compound 728, (R)-5-(7-(chroman-4-ylcarbamoyl)-6-fluoro-3-phenylquinoxalin-2-yl)pentanoic acid]"
